The source of these data is PMC12015262 (Nature Communications, 2025).

The conditions of data set [1]: human, s9.
For data set [2] the following is noted: mouse, s9.
The nature of data set [3]: Pharmacokinetic study, intravenous, male CD-1 mice. The format is in vivo.
Another data set deals with T1, human recombinant ETAR (Homo sapiens, UniProt P25101).
T1 sequence (P25101 21-427): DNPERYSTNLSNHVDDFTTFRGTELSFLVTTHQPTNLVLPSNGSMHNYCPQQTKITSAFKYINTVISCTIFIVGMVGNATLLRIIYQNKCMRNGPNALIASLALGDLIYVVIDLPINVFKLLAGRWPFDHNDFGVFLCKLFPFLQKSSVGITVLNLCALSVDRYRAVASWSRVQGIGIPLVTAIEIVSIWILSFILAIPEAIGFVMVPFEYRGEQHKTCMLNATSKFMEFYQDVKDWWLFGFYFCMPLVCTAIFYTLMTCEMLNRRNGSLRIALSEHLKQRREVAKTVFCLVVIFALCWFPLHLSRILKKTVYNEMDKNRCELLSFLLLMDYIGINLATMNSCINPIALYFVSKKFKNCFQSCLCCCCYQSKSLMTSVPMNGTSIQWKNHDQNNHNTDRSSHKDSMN
Conditions: competition binding.

The subject of the next data set is wild-type ETB. Conditions: previous study; cited from earlier work.
In data set [4] the target is human endothelin type B receptor (ETB), in membranes of CHO cells (human) (UniProt P24530). Nature of the data set: radioligand binding.
The target in data set [5] is T2, recombinant human ETB receptor (Homo sapiens, UniProt P24530).
T2 sequence (P24530 27-442): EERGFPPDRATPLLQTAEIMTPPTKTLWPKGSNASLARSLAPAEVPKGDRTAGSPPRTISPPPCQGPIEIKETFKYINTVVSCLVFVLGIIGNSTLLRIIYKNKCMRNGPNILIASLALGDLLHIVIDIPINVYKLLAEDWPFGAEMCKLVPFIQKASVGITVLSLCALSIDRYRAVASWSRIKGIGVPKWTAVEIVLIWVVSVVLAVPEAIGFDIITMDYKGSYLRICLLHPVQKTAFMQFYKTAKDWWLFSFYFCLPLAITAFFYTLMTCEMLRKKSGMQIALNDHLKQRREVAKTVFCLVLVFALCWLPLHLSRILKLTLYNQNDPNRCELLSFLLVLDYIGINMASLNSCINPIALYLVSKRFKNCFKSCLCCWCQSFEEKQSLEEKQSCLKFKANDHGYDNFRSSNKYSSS
The format is binding. The following applies: Discussion.

Read-outs that look alike come from different tables or passages of the source. Where a SMILES comes first, the peptide text is derived from it. Bridges are numbered along the chain shown (N, C = ends). Bounds are passed on as bounds.

Take `C[C@@H](O)[C@@H]1NC(=O)CNC(=O)[C@H](Cc2c[nH]cn2)NC(=O)[C@H](Cc2c[nH]c3ccccc23)NC(=O)[C@H](CC(N)=O)NC(=O)CNC(=O)C[C@@H](C(=O)N[C@@H](Cc2c[nH]c3ccccc23)C(=O)N[C@@H](Cc2ccccc2)C(=O)N[C@@H](Cc2ccccc2)C(=O)N[C@@H](CC(N)=O)C(=O)N[C@@H](Cc2ccc(O)cc2)C(=O)N[C@@H](Cc2ccc(O)cc2)C(=O)N[C@@H](Cc2c[nH]c3ccccc23)C(=O)O)NC(=O)[C@@H]2CCCN2C(=O)[C@H](CO)NC1=O` [RES-701-3] (GNWHGTSPDWFFNYYW-OH; lactam N-9 (inferred)): the half-life in data set [1] is more than 6 h; in data set [2], more than 6 h; in data set [3] (mouse, in vivo, iv, 3 mg/kg, t1/2, 3 mg/kg IV, male CD-1 mice), more than 6 h. Besides, the “activity against ETA” value on human recombinant ETAR was “no activity”.

For the molecule `CCCC[C@@H](NC(=O)[C@@H](Cc1cn(C(=O)OC)c2ccccc12)NC(=O)[C@H](CC(C)(C)C)NC(=O)N1[C@H](C)CCC[C@@H]1C)C(=O)O` [BQ-788, Dmpc-γ-MeLeul-D-Trp(1-CO2CH3)-D-Nle-OH, reference compound], the “half-life compared with RES-701-3” value in data set [3] (same experiment, IV, mice) is “nearly tenfold lower half-life”.

On to `COc1ccccc1Oc1c(NS(=O)(=O)c2ccc(C(C)(C)C)cc2)nc(-c2ncccn2)nc1OCCO` [Bosentan], for which the “effect on receptor activation level of wild-type ETB” value in the data set on wild-type ETB is “does not change the receptor activation level”.

On to RES-701-3 T6E (peptide), for which the fold reduction of affinity against RES-701-3 in data set [4] was found to be 50 fold.

Take `Cc1cc(C)cc(C(=O)N(C)[C@H](Cc2ccc(-c3ccccc3)cc2)C(=O)N[C@@H](Cc2c[nH]c3ccccc23)C(=O)O)c1` [IRL2500]: the “selectivity for ETB (ETB/ETA)” value in data set [5] stood at 50 ×.
